Laboratory results taken from patent publication US5597899A, “Tumor necrosis factor muteins” (Hoffmann-La Roche Inc., priority 1993, dated 1997).

How the values were obtained:
human TNFR-p75 = assay: Solid phase radioligand competition binding assay, E. coli lysates, TNFR-p75; conditions: 10-fold serial dilutions 10^-2 to 10^-7, < = inhibition but below 50% at 1:100, << = no measurable inhibition at 1:100
Description: (§1) 10 ml suspensions of E. coli cells transformed and induced as described in Examples I and II were centrifuged at 4'000 rpm for 10 min and resuspended in 0.9 ml of lysis buffer (10 mM Tris-HCl pH 8.0, 5 mM EDTA, 2 mM PMSF, 10 mM benzamidine, 200 units/ml aprotinine and 0.1 mg/ml lysozyme). After 20 min incubation at room temperature 50 μl of 1M MgCl2, 20 μl of 5 mg/ml DNaseI, 50 μl of 5M NaCl and 50 μl of 10% NP-40 were added and the mixture was further incubated at room temperature for 15 min. 0.5 ml of the lysate clarified by centrifugation at 13'000 rpm for 5 min was subjected to ammonium sulfate precipitation (25%-70% cut). The 70% ammonium sulfat pellet was dissolved in 0.2 ml PBS and analyzed by sodium dodecyl sulfate polyacrylamide gel electrophoresis (SDS-PAGE) to confirm presence and approximate amount of the recombinant proteins.
96 well microtiter plates were coated with recombinant human […] TNFR-p75-hγ3 and TNFR-p55-hγ3 fusion proteins (extracellular portion of the receptor fused to the Fc part of human IgG3) at a concentration of 0.3 μg/ml and 0.1 μg/ml, respectively, in phosphate buffered saline (PBS, 100 μl/well, overnight at 4° C.) [Loetscher, H. et al. J. Biol. Chem. 266, 18324-18329 (1991); Lesslauer, W. et al. Eur. J. Immunol. 21, 2883-2886 (1991)]. After blocking with blocking buffer (50 mM Tris pH 7.4, 140 mM NaCl, 5 mM EDTA, 0.02% NAN3, 1% defatted milk powder) the microtiter plate was washed with PBS and incubated in blocking buffer containing 0.1% defatted milk powder with 10 ng/ml human wild-type ^125 I-TNFα and various dilutions of E. coli lysates ranging from 10^-2 to 10^-7 (10-fold serial dilutions). TNFα was labelled by the Iodogen method (Pierce Chemical Company) to a specific activity of about 10-30 μCi/μg. The volume was 100 μl/well and each lysate dilution was assayed in duplicate or triplicate. After three hours at room temperature the wells were thoroughly washed with PBS and counted in a γ-counter. The results are given in Table 2 for lysates comprising the muteins indicated therein.

human TNFR-p55 = assay: Solid phase radioligand competition binding assay, E. coli lysates, TNFR-p55; conditions: for Dilution of E. coli Lysate for 50% Inhibition of 125I-TNFα Binding (ID50) TNFR-p55: 10-fold serial dilutions 10^-2 to 10^-7, < = inhibition but below 50% at 1:100, << = no measurable inhibition at 1:100; for ID50 TNFR-p55 / ID50 TNFR-p75: ratio = 1 no receptor selectivity, > 1 TNFR-p55 selectivity, < 1 TNFR-p75 selectivity
Description: as §1, with “After” for “10 ml suspensions of E. coli cells transformed and induced as described in Examples I and II were centrifuged at 4'000 rpm for 10 min and resuspended in 0.9 ml of lysis buffer (10 mM Tris-HCl pH 8.0, 5 mM EDTA, 2 mM PMSF, 10 mM benzamidine, 200 units/ml aprotinine and 0.1 mg/ml lysozyme). After”
TNFα was labelled by the Iodogen method (Pierce Chemical Company) to a specific activity of about 10-30 μCi/μg. The volume was 100 μl/well and each lysate dilution was assayed in duplicate or triplicate. After three hours at room temperature the wells were thoroughly washed with PBS and counted in a γ-counter. The results are given in Table 2 for lysates comprising the muteins indicated therein.

Substance	Dilution of E. coli Lysate for 50% Inhibition of 125I-TNFα Binding (ID50) TNFR-p75 (human TNFR-p75)	Dilution of E. coli Lysate for 50% Inhibition of 125I-TNFα Binding (ID50) TNFR-p55 (human TNFR-p55)	ID50 TNFR-p55 / ID50 TNFR-p75 (human TNFR-p55)
N34H: human TNFα mutein N34H	< 100 fold	670 fold	> 6.7
Y87F: human TNFα mutein Y87F	< 100 fold	200 fold	> 2
D143V: human TNFα mutein D143V	< 100 fold	< 100 fold	< 1
N30T: human TNFα mutein N30T	2,500 fold	2,860 fold	1.1
N34D: human TNFα mutein N34D	< 100 fold	250 fold	> 2.5
Y87K: human TNFα mutein Y87K	< 100 fold	< 100 fold	1
D143W: human TNFα mutein D143W	100 fold	< 100 fold	< 1
L75R: human TNFα mutein L75R	< 100 fold	< 100 fold	1
R31K: human TNFα mutein R31K	3,330 fold	3,330 fold	1
N34Y: human TNFα mutein N34Y, listed twice (codons TAT and TAC)	< 100 fold	< 100 fold	> 1
D143F: human TNFα mutein D143F	250 fold	< 100 fold	< 0.4
A33D: human TNFα mutein A33D	< 100 fold	< 100 fold	> 1
N34P: human TNFα mutein N34P	< 100 fold	< 100 fold	> 1
F144W: human TNFα mutein F144W	180 fold	400 fold	2.2
Y87T: human TNFα mutein Y87T	< 100 fold	< 100 fold	1
Y87E: human TNFα mutein Y87E	< 100 fold	< 100 fold	> 1
Y87L: human TNFα mutein Y87L	< 100 fold	< 100 fold	1
S86D: human TNFα mutein S86D	1,000 fold	6,670 fold	6.7

Substance	Dilution of E. coli Lysate for 50% Inhibition of 125I-TNFα Binding (ID50) TNFR-p75 (human TNFR-p75)	Dilution of E. coli Lysate for 50% Inhibition of 125I-TNFα Binding (ID50) TNFR-p55 (human TNFR-p55)	ID50 TNFR-p55 / ID50 TNFR-p75 (human TNFR-p55)
A145V: human TNFα mutein A145V	2,000 fold	1,000 fold	0.5
S99A: human TNFα mutein S99A	6,670 fold	6,670 fold	1
N34G: human TNFα mutein N34G	< 100 fold	330 fold	> 3.3
S99Y: human TNFα mutein S99Y	< 100 fold	< 100 fold	1
D143E: human TNFα mutein D143E	330 fold	< 100 fold	< 0.3
D143V-A145S: human TNFα mutein D143V-A145S	200 fold	< 100 fold	< 0.5
L75H: human TNFα mutein L75H	2,500 fold	1,670 fold	0.7
F144R: human TNFα mutein F144R	330 fold	2,500 fold	7.6
S147L: human TNFα mutein S147L	3,330 fold	2,000 fold	0.6
A145D: human TNFα mutein A145D	6,670 fold	5,000 fold	0.7
A145S: human TNFα mutein A145S	25,000 fold	14,290 fold	0.6
L75W: human TNFα mutein L75W	330 fold	220 fold	0.7
A145G: human TNFα mutein A145G	6,670 fold	2,500 fold	0.4
S86T: human TNFα mutein S86T	< 100 fold	10,000 fold	> 100
A145T: human TNFα mutein A145T	6,670 fold	5,000 fold	0.7
S147N: human TNFα mutein S147N	10,000 fold	10,000 fold	1
Y87T-E104G: human TNFα mutein Y87T-E104G	< 100 fold	< 100 fold	1
N34F: human TNFα mutein N34F	< 100 fold	100 fold	> 1
